These results are taken from patent US11215608B2, “Methods of determining cellular chemosensitivity” (Dana-Farber Cancer Institute, Inc., priority 2006, dated 2022).

In one test the test system is mouse liver mitochondria. In words: Cytochrome c release from mouse liver mitochondria. Format: biochemical. The settings on record: no tBID, also at 10-fold higher concentrations. As to the method:
(§1) Mitochondria were purified from liver and FL5.12cells as previously described (Letai et al., 2002). Mitochondria were purified from leukemia cells and 2B4 cells as previously described for FL5.12 cells. Mitochondria were incubated with treatments for 45 (mouse liver mitochondria) or 35 minutes (FL5.12, 2B4, and leukemic mitochondria). Release of cytochrome c was determined by a comparison of cytochrome c in the pellet and supernatant following treatment, quantitated by ELISA (R&D systems). When results of multiple experiments were averaged, results from solvent-only (DMSO) treatments values were subtracted from each, so that 0 release reflects that observed in solvent-only treatments.
To test if selective binding corresponded to ability of individual BH3 domains to selectively antagonize antiapoptotic function, a purified mitochondrial system was constructed in which the critical apoptosis decision making molecular machinery was reconstituted. […] The multidomain proapoptotic function was provided by the BAK which resides in mouse liver Mitochondria; mouse liver mitochondria contain no detectable BAX protein (Letai et al., 2002). The dominant antiapoptotic function was provided by one of the five different recombinant antiapoptotic proteins used in the binding assays. BH3 peptides provided the sensitizer function.
Furthermore, when the panel of sensitizer BH3 peptides was tested in the presence of the antiapoptotic protein BCL-XL, there was still no cytochrome c release, formally ruling out the possibility that the BH3 peptides were somehow directly converting antiapoptotic proteins to a proapoptotic function (FIG. 2). To induce MOMP and cytochrome c release, there appears to be an absolute requirement for an activator function, here provided by the tBID protein.

The test system of the next test is CLL mitochondria. In words: Cytochrome c release from CLL mitochondria. The settings on record: peptides or compounds 100 μM. Format: biochemical, human. The protocol: Alternatively, mitochondria were purified from freshly isolated CLL cells and cell lines by mechanical disruption followed by differential centrifugation, as previously described (Letai et al., 2002). Mitochondrial suspensions were made at 0.5 mg protein/ml, except for the case of ABT-737 and negative control enantiomer treatments, where 0.1 mg/ml was used. Release of cytochrome c was determined by a comparison of cytochrome c in the pellet and supernatant quantitated by ELISA (R&D systems).
CLL mitochondria were incubated with BH3 peptides as well as ABT-737 and negative control enantiomer (FIG. 14). […] This pattern is diagnostic of mitochondrial BCL-2 dependence. […] Since the BH3 peptides in the sensitizer panel lack the ability to directly activate BAX and BAK, these experiments also implicated the presence of an activator molecule constitutively sequestered by BCL-2 in CLL.

Test [1] has as its system mitochondria from FL5.12 cells. In words: Cytochrome c release from FL5.12 mitochondria. Format: biochemical, murine. The protocol:
Mitochondria were purified from liver and FL5.12cells as previously described (Letai et al., 2002). Mitochondria were purified from leukemia cells and 2B4 cells as previously described for FL5.12 cells. Mitochondria were incubated with treatments for 45 (mouse liver mitochondria) or 35 minutes (FL5.12, 2B4, and leukemic mitochondria). Release of cytochrome c was determined by a comparison of cytochrome c in the pellet and supernatant following treatment, quantitated by ELISA (R&D systems).
Mitochondria were isolated from wt FL5.12 cells and FL5.12-BCL-2 cells in the presence of IL-3, and from FL5.12-BCL-2 cells following 24 hours of IL-3 deprivation. […] Mitochondrial pellets were subjected to chemical crosslinking as previously described (Letai et al., 2002).

For the next test, the system named is leukemic mitochondria. In words: Cytochrome c release from BCL-2 dependent leukemia mitochondria. The class given is biochemical, mouse. The protocol:
as §1
Leukemia prone mice were generated as previously described (Letai, 2004). Mouse experimental protocols conform to the relevant regulatory standards and were approved by the Dana-Farber Cancer Institute Animal Care and Use Committee.
Previous results have described a mouse acute lymphocytic leukemia model in which c-myc is constitutively expressed and human BCL-2 is repressibly expressed. In this model, when BCL-2 transgene expression is eliminated by administration of doxycycline, the leukemic cells undergo apoptosis, resulting in rapid resolution of the leukemia (Letai, 2004). This provides an ideal in vivo model of a BCL-2 dependent cancer. It was hypothesized that dependence on BCL-2 was due to a similar mechanism to that of the IL-3 deprived FL5.12-BCL-2 cells—that is, a death signal was being initiated and carried by an activator BH3 molecule, but BCL-2 was binding it and preventing its interaction with multidomain proapoptotic proteins.
Mitochondria were isolated from leukemia cells and exposed to sensitizer BH3 peptides. Subsequently, cytochrome c release was measured. As an internal control, mitochondria were isolated from liver from the leukemic mice in parallel (FIG. 8A).

The test system of another test is CLL cells. Nature of the test: Annexin-V death assay of freshly isolated primary CLL cells. Format: cell-based, human. The protocol:
Cells were stained with fluorescent conjugates of Annexin-V (BioVision) and propidium iodide (PI) and analyzed on a FACSCalibur machine (Becton-Dickinson).
15 ml of blood in heparin treated tubes was obtained from each anonymous CLL patient and processed without freezing. Equal volume of media (RPMI medium, 10% […], supplemented with […] and 10 mg/ml transferrin) was mixed with each sample and CLL cells isolated by centrifugation through Ficoll-PAQUE Plus (Amersham). Cells were washed twice in media and cultured at a density of 2.0×10^6 cells/ml for up to 48 hours. Samples for FIG. 11A were obtained from 24 consecutive patients identified with WBC >50,000/μl. All guidelines and regulations were followed in accordance with IRB protocols #99-224 (Dana-Farber Cancer Institute). Normal PBMC's were obtained from tubing discarded following platelet donation by anonymous normal donors and processed as above, except cultured without insulin and transferrin.
Experimental replicates were performed using lysates or mitochondria from different CLL samples. In main body, where a P value is given, it was obtained by using a two-tailed Students t-test, and P<0.05 was considered statistically significant. GraphPad Prism software was used to determine EC50 values by non-linear dose-response curve fitting and to perform Mann-Whitney nonparametric testing in Table 5.
Freshly isolated primary CLL cells were incubated with ABT-737 or negative control enantiomer. After 48 hours, death was assessed using Annexin-V staining.

A further test relates to SU-DHL8. Nature of the test: BH3 profiling, cytochrome c release from lymphoma mitochondria. The class given is biochemical. The settings on record: SU-DHL-8. An excerpt:
(§2) BH3 profiling allows for the prediction of response of cancer cells to anti-cancer therapeutics. For the purposes of this application, therapeutics can be divided into those that target anti-apoptotic BCL-2 proteins, and conventional agents. As a model test system, four lymphoma cell lines SU-DHL4, SU-DHL6, SU-DHL8, and SU-DHL 10 were employed. To perform BH3 profiling, the ability of a panel of sensitizer peptides to induce mitochondrial outer membrane permeabilization (MOMP) in mitochondria isolated from the lymphoma cells were tested. […] MOMP was measured by quantifying cytochrome c release by ELISA.

The next test relates to SU-DHL6. The test is described as above. Format: biochemical. The following applies: SU-DHL 6.
Description: as §2
SU-DHL4 and SU-DHL6 a “primed” phenotype, based on the sensitivity to sensitizer BH3 peptides. […] SU-DHL-10 responded poorly to both sensitizer and activator peptides, indicating the loss of the effector arm.

The mark [2] stands for this setting: FL5.12-BCL-2 cells deprived of IL-3 for 24 hours, peptides 10 μM.

Ends that are not written are not given here. Peptide text beside a SMILES is read from it. * marks the point of attachment. Cbz = O=C(OCc1ccccc1)*; CH2F = FC*

Regarding “BH3 domain peptide of BNIP3-a, VVEGEKEVEALKKSADWVSD (SEQ ID NO: 9) (not fully specified (N-terminus))”, in the test on mouse liver mitochondria, the “cytochrome c release by peptide alone” value was “none of the sensitizer BH3 peptides by themselves can induce cytochrome c release significantly above background”. For the same molecule, the cytochrome c release result in the test with CLL mitochondria is “do not”.

For the molecule `CC[C@H](C)[C@H](NC(=O)[C@H](CS)NC(=O)[C@H](C)NC(=O)[C@H](CC(C)C)NC(=O)[C@H](CCCNC(=N)N)NC(=O)[C@H](CC(C)C)NC(=O)[C@H](C)NC(=O)[C@H](CC(C)C)NC(=O)[C@H](C)NC(=O)[C@H](CC(=O)O)NC(=O)[C@H](CO)NC(=O)CNC(=O)[C@H](CCC(=O)O)NC(=O)[C@H](CCSC)NC(=O)CCCCCNC(=S)Nc1ccc2c(c1)C(=O)OC21c2ccc(O)cc2Oc2cc(O)ccc21)C(=O)NCC(=O)N[C@@H](CC(=O)O)C(=O)N[C@@H](CCC(=O)O)C(=O)N[C@@H](CCSC)C(=O)N[C@@H](CC(=O)O)C(=O)N[C@H](C(=O)O)C(C)C` [BIK], the “cytochrome c release by peptide alone” value with mouse liver mitochondria was “none of the sensitizer BH3 peptides by themselves can induce cytochrome c release significantly above background”. The cytochrome c release entry is reported as “does not induce cytochrome c release” in test [1] (setting [2]) and “capable of inducing near total cytochrome c release” with leukemic mitochondria.

Consider “BADmut: point mutant (L→A) of BAD BH3, LWAAQRYGREARRMSDEFEGSFKGL (SEQ ID NO: 13), negative control (Chemically synthesized primer)”, for which the cytochrome c release entry in the test on CLL mitochondria is “do not”.

For the molecule `CC(C)C[C@H](NC(=O)[C@H](C)NC(=O)[C@H](CCCCN)NC(=O)[C@H](CC(C)C)NC(=O)[C@H](CCCNC(=N)N)NC(=O)[C@H](C)NC(=O)[C@H](C)NC(=O)[C@@H](NC(=O)[C@H](CC(C)C)NC(=O)[C@H](CCC(N)=O)NC(=O)[C@H](C)NC(=O)[C@H](C)NC(=O)[C@H](CO)NC(=O)[C@H](CO)NC(=O)CCCCCNC(=S)Nc1ccc2c(c1)C(=O)OC21c2ccc(O)cc2Oc2cc(O)ccc21)[C@@H](C)O)C(=O)NCC(=O)N[C@@H](CC(=O)O)C(=O)N[C@@H](CCC(=O)O)C(=O)N[C@@H](CC(C)C)C(=O)N[C@@H](Cc1c[nH]cn1)C(=O)N[C@@H](CCC(N)=O)C(=O)O` [HRK], the “cytochrome c release by peptide alone” value in the test with mouse liver mitochondria is given as “none of the sensitizer BH3 peptides by themselves can induce cytochrome c release significantly above background”. Besides, the cytochrome c release entry in the test on CLL mitochondria is reported as “do not”.

On to “second BH3 domain peptide of murine NOXA, PADLKDECAQLRRIGDKVNL (SEQ ID NO: 7) (not fully specified (N-terminus)) [NOXA B]”, for which the “cytochrome c release by peptide alone” value in the test with mouse liver mitochondria is “none of the sensitizer BH3 peptides by themselves can induce cytochrome c release significantly above background”.

For `COC(=O)C[C@H](NC(=O)[C@H](C)NC(=O)[C@@H](NC(=O)OCc1ccccc1)C(C)C)C(=O)CF` [ZVAD-fmk] (Cbz-Val-Ala-Asp(OMe)-CH2F), the “protection against ABT-737-induced death” value with CLL cells (co-treatment, 200 μM) is reported as “protects against ABT-737-induced death”.

For `CC[C@H](C)[C@H](NC(=O)[C@H](CC(N)=O)NC(=O)[C@H](CCCNC(=N)N)NC(=O)[C@@H](NC(=O)[C@@H](NC(=O)[C@H](CC(=O)O)NC(=O)[C@H](CCC(=O)O)NC(=O)CCCCCNC(=S)Nc1ccc2c(c1)C(=O)OC21c2ccc(O)cc2Oc2cc(O)ccc21)[C@@H](C)CC)[C@@H](C)CC)C(=O)N[C@@H](C)C(=O)N[C@@H](CCCNC(=N)N)C(=O)N[C@@H](Cc1c[nH]cn1)C(=O)N[C@@H](CC(C)C)C(=O)N[C@@H](C)C(=O)N[C@@H](CCC(N)=O)C(=O)N[C@H](C(=O)NCC(=O)N[C@@H](CC(=O)O)C(=O)N[C@@H](CO)C(=O)N[C@@H](CCSC)C(=O)N[C@@H](CC(=O)O)C(=O)N[C@@H](CCCNC(=N)N)C(=O)O)C(C)C` [BID], the cytochrome c release entry in test [1] (setting [2]) is on record as “sensitivity to 10 μM BID BH3 is restored”; in test [1] (FL5.12-BCL-2 cells with IL-3, peptides 10 μM) it was “BCL-2 overexpression inhibits release”; in test [1] (wt FL5.12 cells with IL-3, peptides 10 uM) it was “potently induce cytochrome c release”. Moreover, the “mitochondrial sensitivity to BH3 peptide” value with SU-DHL8 is “responding strongly”.

For orientation: EC50 means the concentration that produces a half-maximal response. Regarding `CN(C)CC[C@@H](CSc1ccccc1)Nc1ccc(S(=O)(=O)NC(=O)c2ccc(N3CCN(Cc4ccccc4-c4ccc(Cl)cc4)CC3)cc2)cc1[N+](=O)[O-]` [NCE], the EC50 with CLL cells (twenty-four CLL samples, 48 hours, read-out: mean EC50, apoptosis of CLL cells) was 574 nM.

Turning to `CC[C@H](C)[C@H](NC(=O)[C@H](CC(C)C)NC(=O)[C@H](CCC(N)=O)NC(=O)[C@H](CC(C)C)NC(=O)[C@H](CCCCN)NC(=O)[C@H](CCCNC(=N)N)NC(=O)[C@H](C)NC(=O)[C@@H](NC(=O)[C@H](CCC(N)=O)NC(=O)[C@@H](NC(=O)[C@H](CCC(=O)O)NC(=O)[C@H](C)NC(=O)[C@H](CCC(N)=O)NC(=O)[C@H](Cc1c[nH]cn1)NC(=O)CCCCCNC(=S)Nc1ccc2c(c1)C(=O)OC21c2ccc(O)cc2Oc2cc(O)ccc21)C(C)C)[C@@H](C)CC)C(=O)N[C@@H](C)C(=O)N[C@@H](CC(=O)O)C(=O)N[C@@H](CCC(N)=O)C(=O)N[C@@H](Cc1ccccc1)C(=O)N[C@@H](Cc1c[nH]cn1)C(=O)N[C@@H](CCCNC(=N)N)C(=O)O` [BMF], the “cytochrome c release by peptide alone” value in the test on mouse liver mitochondria was “none of the sensitizer BH3 peptides by themselves can induce cytochrome c release significantly above background”. The values for the cytochrome c release result in the test on leukemic mitochondria and with CLL mitochondria were “capable of inducing near total cytochrome c release” and “induce cytochrome c release”, respectively. Also, in the test with SU-DHL6, the “mitochondrial sensitivity to BH3 peptide” value was “strong”.
